Laboratory results from PMC6977966, “Inhibition of synucleinopathic seeding by rationally designed inhibitors” (eLife, 2020).
Where two headings read alike, the source gives them in different places. Where a SMILES comes first, the peptide text is derived from it. Where no end group is shown, it is not given here. [ ]: non-standard residue; d: D form. Sar = CNCC(=O)O

Experiments:
[1] = ref Rodriguez et al., 2015; cited from earlier work
Excerpt: Based on the atomic structure of NACore [68-GAVVTGVTAVA-78] as a template, we applied computational and structure-based approaches to design peptidic inhibitors. […] The inhibitors were designed using Rosetta-based computational modeling to bind to the tip of the steric-zipper protofilament, thereby capping the fibrils (Figure 1A). We identified four candidates; S37, S61, S62 and S71 that are computed to bind favo ...

α-syn fibrils = molecular target: T1, α-syn fibrils (Homo sapiens, UniProt P37840); experiment: SPR binding to immobilized sonicated, filtered α-syn fibrils; details: steady-state, 1:1 binding model, read-out: equilibrium dissociation constant Kd, α-syn fibril
T1 construct: made in house; host or cells: Escherichia coli BL21 (DE3) gold
Excerpt: Computational modeling predicted that our candidate peptidic inhibitors bind α-syn fibril seeds and prevent their growth and propagation. To obtain direct evidence of binding of our inhibitors to α-syn fibril seeds, we used surface plasmon resonance (SPR) (Figure 2A). For the SPR experiments, α-syn fibrils were immobilized on a CM5 sensor chip using standard amine coupling chemistry. For immobilization, mature α-syn fibrils were sonicated to form short fragments (Figure 2—figure supplement 1A) and then filtered through a 0.22-micron filter to remove large aggregates, retaining short fibrils (Figure 2—figure supplement 1A). We confirmed that short fibrils generated by sonication retain the ability to seed monomeric α-syn using an in vitro-seeded-aggregation assay. […] We then immobilized the sonicated and filtered α-syn fibrils on a CM5 SPR chip and measured affinities of our peptide inhibitors to the fibrils. […] The equilibrium dissociation constant (Kd) was calculated by steady-state analysis, fitting the data with 1:1 binding model (Figure 2B). […]
Figure 2. […] (B) The equilibrium dissociation constant (Kd) was calculated by fitting the plot of steady-state inhibitor binding levels (SPR signal at steady-state) against inhibitor concentration with 1:1 binding model. […]

monomeric α-syn = molecular target: T2, monomeric α-syn (Homo sapiens, UniProt P37840); experiment: SPR binding to immobilized α-syn monomers; details: Biacore T200, CM5 chip amine coupling, inhibitor 0.5–500 μM, 30 μl/min, PBS pH 7.4, 25°C, steady-state, 1:1 binding model, mean ± SD, performed thrice, read-out: dissociation constant Kd, α-syn monomer
T2 construct: prevent aggregation of full-length α-syn in vitro; made in house; host or cells: Escherichia coli BL21 (DE3) gold

Compound | aggregation rate relative to NACore [1] | Kd (α-syn fibrils) | Kd (monomeric α-syn) | Kd (α-syn fibrils; Biacore T200, CM5 chip amine coupling, inhibitor 0.5–500 μM, 30 μl/min, PBS pH 7.4, 25°C, mean ± SD, performed thrice)
AVVTGVTAV [69-AVVTGVTAV-77, smaller 9-residue segment within NACore] | aggregates slower than NACore | – | – | –
GAVVWGVTAVGRKKRRQRRRPQ [S61] | – | 9.28 µM | 62.8 ± 11.7 µM | –
CC(C)[C@H](NC(=O)CN(C)C(=O)[C@@H](NC(=O)[C@@H](NC(=O)[C@@H](NC(=O)[C@H](C)NC(=O)[C@H](CCCNC(=N)N)NC(=O)[C@H](CCCNC(=N)N)NC(=O)[C@H](CCCNC(=N)N)NC(=O)[C@H](CCC(N)=O)NC(=O)[C@H](CCCNC(=N)N)NC(=O)[C@H](CCCNC(=N)N)NC(=O)[C@H](CCCCN)NC(=O)[C@H](CCCCN)NC(=O)[C@H](CCCNC(=N)N)NC(=O)CNC(=O)[C@@H](N)Cc1ccc(O)cc1)C(C)C)C(C)C)[C@@H](C)O)C(=O)N[C@H](C(=O)N[C@@H](C)C(=O)N[C@H](C(=O)N[C@@H](C)C(=O)N[C@@H](CCC(=O)O)C(=O)O)C(C)C)[C@@H](C)O [S71] (H-YGRKKRRQRRRAVVT[Sar]VTAVAE-OH) | – | – | 116 ± 11.7 µM | 10.9 ± 0.11 µM
